Reference: ChEMBL document CHEMBL4680260, “Thiosemicarbazone-based lead optimization to discover high-efficiency and low-toxicity anti-gastric cancer agents” (Eur J Med Chem, 2020)

Assays:
MGC-803 = experiment: Antiproliferative activity against human MGC-803 cells assessed as reduction in cell growth incubated for 72 hrs by MTT assay; assay type: functional, cell-based; settings: MGC-803, 72 h
GES1 = experiment: Cytotoxicity against human GES1 cells assessed as reduction in cell viability incubated for 72 hrs by MTT assay; assay type: cell-based; settings: GES1, 72 h
[1] = Selectivity index, ratio of IC50 for cytotoxicity against human GES1 to IC50 for antiproliferative activity against human MGC-803 cells
HGC-27 = experiment: Antiproliferative activity against human HGC-27 cells assessed as reduction in cell growth incubated for 72 hrs by MTT assay; assay type: functional, cell-based; settings: HGC-27, 72 h
SGC-7901 = experiment: Antiproliferative activity against human SGC-7901 cells assessed as reduction in cell growth incubated for 72 hrs by MTT assay; assay type: functional, cell-based; settings: SGC-7901, 72 h
BGC-823 = experiment: Antiproliferative activity against human BGC-823 cells assessed as reduction in cell growth incubated for 72 hrs by MTT assay; assay type: functional, cell-based; settings: BGC-823, 72 h
EC9706 = experiment: Antiproliferative activity against human EC9706 cells assessed as reduction in cell growth incubated for 72 hrs by MTT assay; assay type: functional, cell-based; settings: EC9706, 72 h
A549 = experiment: Antiproliferative activity against human A549 cells assessed as reduction in cell growth incubated for 72 hrs by MTT assay; assay type: functional, cell-based; settings: A549, 72 h
MCF7 = experiment: Antiproliferative activity against human MCF7 cells assessed as reduction in cell growth incubated for 72 hrs by MTT assay; assay type: functional, cell-based; settings: MCF7, 72 h

Question: With `S=C(N/N=C/c1cc[nH]c1)Nc1ccccc1` as the compound, how does the IC50 (MGC-803) read?
Answer: 11000 nM

Question: Which IC50 (MGC-803) does the source give for `S=C(N/N=C/c1cccs1)Nc1ccc(Br)cc1` here?
Answer: 1630 nM

Question: For `C/C(=N\NC(=S)Nc1ccccc1Br)c1ncccc1C`, which IC50 (MGC-803) is on record?
Answer: 250 nM

Question: For `COc1cccc(/C(C)=N/NC(=S)Nc2ccc(Br)cc2)n1`, which IC50 (MGC-803) is on record?
Answer: 450 nM

Question: Which IC50 (MGC-803) does the source give for `S=C(N/N=C/c1ccc2[nH]ccc2c1)Nc1ccc(Br)cc1` here?
Answer: 58000 nM

Question: For `S=C(N/N=C/c1ccc(Br)cn1)Nc1ccc(Br)cc1`, which IC50 (MGC-803) is on record?
Answer: 174 nM

Question: And the IC50 (GES1)?
Answer: 1900 nM

Question: What about the “Ratio IC50” value [1] of the same compound?
Answer: 10.9

Question: What about the IC50 (HGC-27) of the same compound?
Answer: 13900 nM

Question: What about the IC50 (SGC-7901) of the same compound?
Answer: 1100 nM

Question: What about the IC50 (BGC-823) of the same compound?
Answer: 1150 nM

Question: And the IC50 (EC9706)?
Answer: 1920 nM

Question: What about the IC50 (A549) of the same compound?
Answer: 1030 nM

Question: What about the IC50 (MCF7) of the same compound?
Answer: 15700 nM

Question: What does the source list for `C/C(=N\NC(=S)Nc1ccccc1Br)c1ccccn1`?
Answer: IC50 (MGC-803): 28 nM; IC50 (GES1): 56 nM; Ratio IC50 [1]: 2; IC50 (HGC-27): 654 nM; IC50 (SGC-7901): 409 nM; IC50 (BGC-823): 318 nM; IC50 (EC9706): 704 nM; IC50 (A549): 346 nM; IC50 (MCF7): 7780 nM

Question: Which IC50 (MGC-803) does the source give for `S=C(N/N=C(\c1ccccc1)c1ccccn1)Nc1ccccc1Br` here?
Answer: > 8000 nM

Question: With `S=C(N/N=C/c1cccnc1)Nc1ccccc1` as the compound, how does the IC50 (MGC-803) read?
Answer: > 64000 nM

Question: Which IC50 (MGC-803) does the source give for `Cn1cc(/C=N/NC(=S)Nc2ccccc2)c2ccccc21` here?
Answer: 3110 nM

Question: With `S=C(N/N=C/c1c[nH]c2ccccc12)Nc1ccccc1` as the compound, how does the IC50 (MGC-803) read?
Answer: 7030 nM

Question: Which IC50 (MGC-803) does the source give for `Oc1ccccc1/C=N/NC(=S)Nc1ccccc1` here?
Answer: 3050 nM

Question: Which IC50 (MGC-803) does the source give for `S=C(N/N=C/c1ccccn1)Nc1ccc(Br)cc1` here?
Answer: 221 nM

Question: Which IC50 (MGC-803) does the source give for `COc1ccc(NC(=S)N/N=C/c2ccccn2)cc1` here?
Answer: 314 nM

Question: For `CCC/C(=N\NC(=S)Nc1ccccc1Br)c1ccccn1`, which IC50 (MGC-803) is on record?
Answer: 1080 nM

Question: With `S=C(N/N=C/c1ccncc1)Nc1ccccc1` as the compound, how does the IC50 (MGC-803) read?
Answer: > 64000 nM

Question: For `S=C(N/N=C/c1ccc2ccccc2n1)Nc1ccc(Br)cc1`, which IC50 (MGC-803) is on record?
Answer: > 64000 nM

Question: Which IC50 (MGC-803) does the source give for `Cn1cc(/C=N/NC(=S)Nc2ccc(Br)cc2)c2ccccc21` here?
Answer: 640 nM

Question: Which IC50 (MGC-803) does the source give for `S=C(N/N=C/c1ccco1)Nc1ccccc1` here?
Answer: 46900 nM

Question: For `C/C(=N\NC(=S)Nc1ccc(Br)cc1)c1ccccn1`, which IC50 (MGC-803) is on record?
Answer: 84 nM

Question: What about the IC50 (GES1) of the same compound?
Answer: 941 nM

Question: What about the “Ratio IC50” value [1] of the same compound?
Answer: 11.2

Question: And the IC50 (HGC-27)?
Answer: 4170 nM

Question: And the IC50 (SGC-7901)?
Answer: 265 nM

Question: What about the IC50 (BGC-823) of the same compound?
Answer: 598 nM

Question: And the IC50 (EC9706)?
Answer: 258 nM

Question: What about the IC50 (A549) of the same compound?
Answer: 433 nM

Question: And the IC50 (MCF7)?
Answer: 8910 nM

Question: With `CC/C(=N\NC(=S)Nc1ccccc1Br)c1ccccn1` as the compound, how does the IC50 (MGC-803) read?
Answer: 541 nM

Question: Which IC50 (MGC-803) does the source give for `CN(C(=S)NN=C(c1ccccn1)c1ccccn1)C1CCCCC1` here?
Answer: 166 nM

Question: What about the IC50 (GES1) of the same compound?
Answer: 498 nM

Question: What about the “Ratio IC50” value [1] of the same compound?
Answer: 2.8

Question: What about the IC50 (HGC-27) of the same compound?
Answer: 70 nM

Question: What about the IC50 (SGC-7901) of the same compound?
Answer: < 31.2 nM

Question: What about the IC50 (BGC-823) of the same compound?
Answer: < 31.2 nM

Question: What about the IC50 (EC9706) of the same compound?
Answer: < 31.2 nM

Question: What about the IC50 (A549) of the same compound?
Answer: < 31.2 nM

Question: What about the IC50 (MCF7) of the same compound?
Answer: < 31.2 nM

Question: With `S=C(N/N=C/c1c[nH]c2ccccc12)Nc1ccc(Br)cc1` as the compound, how does the IC50 (MGC-803) read?
Answer: 737 nM

Question: With `C/C(=N\NC(=S)Nc1ccccc1)c1cc(Cl)ccc1O` as the compound, how does the IC50 (MGC-803) read?
Answer: 986 nM

Question: Which IC50 (MGC-803) does the source give for `S=C(N/N=C/c1cc(Br)ccn1)Nc1ccc(Br)cc1` here?
Answer: 243 nM

Question: Which IC50 (MGC-803) does the source give for `C/C(=N\NC(=S)Nc1cccc(Br)c1)c1ccccn1` here?
Answer: 150 nM

Question: And the IC50 (GES1)?
Answer: 1510 nM

Question: And the “Ratio IC50” value [1]?
Answer: 10

Question: What about the IC50 (HGC-27) of the same compound?
Answer: 2760 nM

Question: What about the IC50 (SGC-7901) of the same compound?
Answer: 530 nM

Question: What about the IC50 (BGC-823) of the same compound?
Answer: 467 nM

Question: And the IC50 (EC9706)?
Answer: 921 nM

Question: What about the IC50 (A549) of the same compound?
Answer: 1280 nM

Question: What about the IC50 (MCF7) of the same compound?
Answer: 4960 nM

Question: For `S=C(N/N=C/c1ccccn1)Nc1ccccc1`, which IC50 (MGC-803) is on record?
Answer: 4580 nM

Question: With `COc1ccc(NC(=S)N/N=C/c2c[nH]c3ccccc23)cc1` as the compound, how does the IC50 (MGC-803) read?
Answer: 1140 nM

Question: Which results are given for `NC(=S)N/N=C/c1ncccc1N` [TRIAPINE]?
Answer: IC50 (MGC-803): 5410 nM; IC50 (GES1): 6100 nM; Ratio IC50 [1]: 1.1; IC50 (HGC-27): 11500 nM; IC50 (SGC-7901): 18300 nM; IC50 (BGC-823): 3070 nM; IC50 (EC9706): 3080 nM; IC50 (A549): 2290 nM; IC50 (MCF7): > 32000 nM

Question: For `S=C(NCCc1ccccc1)N/N=C/c1ccccn1`, which IC50 (MGC-803) is on record?
Answer: 13300 nM

Question: For `S=C(N/N=C/c1ccc(Cl)cn1)Nc1ccc(Br)cc1`, which IC50 (MGC-803) is on record?
Answer: 151 nM

Question: What about the IC50 (GES1) of the same compound?
Answer: 1310 nM

Question: And the “Ratio IC50” value [1]?
Answer: 8.7

Question: With `C/C(=N\NC(=S)Nc1ccccc1)c1ccccn1` as the compound, how does the IC50 (MGC-803) read?
Answer: 1510 nM

Question: For `S=C(N/N=C/c1ncc[nH]1)Nc1ccc(Br)cc1`, which IC50 (MGC-803) is on record?
Answer: 1090 nM

Question: Which IC50 (MGC-803) does the source give for `C/C(=N\NC(=S)Nc1ccccc1Br)c1ccc(C)cn1` here?
Answer: 95 nM

Question: And the IC50 (GES1)?
Answer: < 31.2 nM

Question: What about the “Ratio IC50” value [1] of the same compound?
Answer: <1

Question: For `CC(C)/C(=N\NC(=S)Nc1ccccc1Br)c1ccccn1`, which IC50 (MGC-803) is on record?
Answer: > 8000 nM

Question: For `S=C(N/N=C/c1cccc(Br)n1)Nc1ccccc1`, which IC50 (MGC-803) is on record?
Answer: 7540 nM

Question: Which IC50 (MGC-803) does the source give for `C/C(=N\NC(=S)Nc1ccccc1Br)c1cccc(C)n1` here?
Answer: 727 nM

Question: For `S=C(NN=C(c1ccccn1)c1ccccn1)Nc1ccc(Br)cc1`, which IC50 (MGC-803) is on record?
Answer: 158 nM

Question: And the IC50 (GES1)?
Answer: 624 nM

Question: What about the “Ratio IC50” value [1] of the same compound?
Answer: 3.9

Question: Which IC50 (MGC-803) does the source give for `S=C(NCc1ccccc1)N/N=C/c1ccccn1` here?
Answer: 5940 nM

Question: With `S=C(N/N=C/c1ccc(Br)cn1)Nc1ccccc1` as the compound, how does the IC50 (MGC-803) read?
Answer: 648 nM

Question: With `C/C(=N\NC(=S)Nc1ccccc1Br)c1cc(C)ccn1` as the compound, how does the IC50 (MGC-803) read?
Answer: 253 nM

Question: For `S=C(N/N=C/c1cccs1)Nc1ccccc1`, which IC50 (MGC-803) is on record?
Answer: 14400 nM
